Reference: patent publication US12728119B2, “Pharmaceutical composition for preventing or treating cancer comprising 3-ketoacyl CoA thiolase inhibitor and carnitine acylcarnitine carrier inhibitor” (NATIONAL CANCER CENTER, priority 2020, dated 2026)
Where “and” joins values, the source holds several entries; their conditions need not be identical. Equal values may be shown once.

Tests used:
Type in all cases: cell-based
[1] = system: A375 melanoma cell line; test: SRB analysis 3; conditions: 48 hours
Procedure: (§1) Through SRB analysis (n=3), the effect of triple combination treatment of a CAC inhibitor (KN510: omeprazole), ACAA inhibitor (KN713: trimetazidine) and other anticancer drug on cell growth in the cancer cells was analyzed. (see Table 11).
(§2) The SRB assay was performed as follows: each cell line (100 μl) was seeded into 96-well microtiter plates at densities ranging from 5,000 to 40,000 cells/well depending on the doubling time of each cell line. After 24 hours, drug (100 μl per well) was added to each well and the culture was incubated at 37° C. for 48 hours. Cells were then fixed in 50% TCA (50 μl per well) and plates were incubated at 4° C. for a minimum of 1 hour or a maximum of 3 hours. After that, the liquid was removed from the plate, then rinsed 5 times with water and dried for approximately 12-24 hours at room temperature (RT). After the fixed cells were stained with 0.4% SRB (100 μl per well) for 10 minutes at room temperature, the plates were washed 3 times with 1% glacial acetic acid and dried at room temperature for about 12-24 hours. SRB staining was dissolved in 10 mM Trizma base and absorbance was read at 515 nm. The effect of the drug was expressed as GI50 (50% growth inhibition), TGI (total growth inhibition) or LC50 (lethal concentration). GI50 is the maximum concentration at the moment of 50% inhibition of cell proliferation and IC50 is the concentration of the drug that inhibits the enzyme activity in vitro by 50% in this study.

[2] = system: A549 non-small cell lung cancer (NSCLC) cell line; test: SRB analysis 3; conditions: 48 hours
Procedure: as §1, §2

[3] = system: ACHN renal cancer cell line; test: SRB analysis 3; conditions: 48 hours
Procedure: as §1, §2

[4] = system: AGS gastric cancer cell line; test: SRB analysis 3; conditions: 48 hours
Procedure: as §1, §2

[5] = system: AsPC-1 pancreatic cancer (PDAC) cell line; test: SRB analysis 3; conditions: 48 hours
Procedure: as §1, §2

[6] = system: COLO-205 colon cancer cell line; test: SRB analysis 3; conditions: 48 hours
Procedure: as §1, §2

[7] = system: Caki-1 renal cancer cell line; test: SRB analysis 3; conditions: 48 hours
Procedure: as §1, §2

[8] = system: DU145 prostate cancer cell line; test: SRB analysis 3; conditions: 48 hours
Procedure: as §1, §2

[9] = system: H1975 non-small cell lung cancer (NSCLC) cell line; test: SRB analysis 3; conditions: 48 hours
Procedure: as §1, §2

[10] = system: HCT-116 colon cancer cell line; test: SRB analysis 3; conditions: 48 hours
Procedure: as §1, §2

[11] = system: Huh-7 liver cancer cell line; test: SRB analysis 3; conditions: 48 hours
Procedure: as §1, §2

[12] = system: MCF7 breast cancer cell line; test: SRB analysis 3; conditions: 48 hours
Procedure: as §1, §2

[13] = system: MDA-MB-231 breast cancer cell line; test: SRB analysis 3; conditions: 48 hours
Procedure: as §1, §2

[14] = system: MIA PaCa-2 pancreatic cancer (PDAC) cell line; test: SRB analysis 3; conditions: 48 hours
Procedure: as §1, §2

[15] = system: MKN45 gastric cancer cell line; test: SRB analysis 3; conditions: 48 hours
Procedure: as §1, §2

[16] = system: OVCAR-8 ovarian cancer cell line; test: SRB analysis 3; conditions: 48 hours
Procedure: as §1, §2

[17] = system: PC-3 prostate cancer cell line; test: SRB analysis 3; conditions: 48 hours
Procedure: as §1, §2

[18] = system: SK-OV-3 ovarian cancer cell line; test: SRB analysis 3; conditions: 48 hours
Procedure: as §1, §2

[19] = system: SK-hep-1 liver cancer cell line; test: SRB analysis 3; conditions: 48 hours
Procedure: as §1, §2

[20] = system: UACC62 melanoma cell line; test: SRB analysis 3; conditions: 48 hours
Procedure: as §1, §2

[21] = system: cancer cells; test: SRB analysis 3, triple combination, summary over cancer panels
Procedure: as §1, §2

[22] = system: T87G glioblastoma (GBM) cell line; test: SRB analysis 3; conditions: Cisplatin 1 μM, 48 hours
Procedure: as §2, with “Through SRB analysis (n=3), the effect of triple combination treatment of a CAC inhibitor ([…] inhibitor (KN713: trimetazidine) and other anticancer drug on cell growth in the cancer cells was analyzed. (see Table 11). The” for “The”, “nm.” for “nm. The effect of the drug was expressed as GI50 (50% growth inhibition), TGI (total growth inhibition) or LC50 (lethal concentration). GI50 is the maximum concentration at the moment of 50% inhibition of cell proliferation and IC50 is the concentration of the drug that inhibits the enzyme activity in vitro by 50% in this study.”

[23] = system: U87MG glioblastoma (GBM) cell line; test: SRB analysis 3; conditions: Cisplatin 1 μM, 48 hours
Procedure: as §2, with “Through SRB analysis (n=3), the effect of triple combination treatment of a CAC inhibitor ([…] inhibitor (KN713: trimetazidine) and other anticancer drug on cell growth in the cancer cells was analyzed. (see Table 11). The” for “The”, “nm.” for “nm. The effect of the drug was expressed as GI50 (50% growth inhibition), TGI (total growth inhibition) or LC50 (lethal concentration). GI50 is the maximum concentration at the moment of 50% inhibition of cell proliferation and IC50 is the concentration of the drug that inhibits the enzyme activity in vitro by 50% in this study.”

[24] = system: AsPC-1 pancreatic cancer cells; test: SRB analysis 2; conditions: KN715 200 μM, 48 hours
Procedure: (§3) The SRB assay was performed as follows: each cell line (100 μl) was seeded into 96-well microtiter plates at densities ranging from 5,000 to 20,000 cells/well depending on the doubling time of each cell line. After cell seeding, microtiter plates were incubated for 24 h before addition of experimental drug. Drugs were prepared at the indicated concentrations and 100 μl was added to each well; The plates were then incubated in a CO2 incubator. Then, cold TCA was added to terminate the assay. Cells were fixed in situ by gentle addition of 50 μl of cold 50% (w/v) TCA (final concentration: 10% TCA) and incubated at 4° C. for 60 min. The supernatant was discarded and the plate was washed 5 times with tap water and then air dried. A solution (100 μl) of 0.4% (w/v) SRB (Sulforhodamine B) in 1% acetic acid was added to each well, and the plate was left at room temperature for 10 minutes. After staining, the plates were air dried after washing 5 times with 1% acetic acid to remove unbound dye. The bound dye was then solubilized with 10 mM trizma base and the absorbance was recorded at 515 nm using an automated plate reader.

[25] = system: BxPC-3 pancreatic cancer cells; test: SRB analysis 2; conditions: KN715 200 μM, 48 hours
Procedure: as §3

[26] = system: MIA PaCa2 pancreatic cancer cells; test: SRB analysis 2; conditions: MIA PaCa-2; KN715 200 μM; 48 hours
Procedure: as §3

[27] = system: SNU-324 pancreatic cancer cells; test: SRB analysis 2; conditions: SNU324; KN715 200 μM; 48 hours
Procedure: as §3

[28] = system: SU.86.86 pancreatic cancer cells; test: SRB analysis 2; conditions: KN715 200 μM, 48 hours
Procedure: as §3

[29] = Breast Cancer, BT-549, MDA MB 231
[30] = Ovarian Cancer, SK-OV-3, OVCAR-3
[31] = Renal cell carcinoma, ACHN, CAKI-1

## O=c1[nH]cc(F)c(=O)[nH]1 [5-FU]
[1]; 5-FU 5 μM
  cell growth (Control = 100): 95.91
[2]; 5-FU 5 μM
  cell growth (Control = 100): 28.5
[3]; 5-FU 5 μM
  cell growth (Control = 100): 26.38
[4]; 5-FU 5 μM
  cell growth (Control = 100): 39.84
[5]; 5-FU 10 μM
  cell growth (Control = 100): 64.54
[6]; 5-FU 5 μM
  cell growth (Control = 100): −4.957
[7]; 5-FU 5 μM
  cell growth (Control = 100): 59.41
[8]; 5-FU 5 μM
  cell growth (Control = 100): 59.63
[9]; 5-FU 5 μM
  cell growth (Control = 100): 58.333
[10]; 5-FU 5 μM
  cell growth (Control = 100): 14.62
[11]; 5-FU 5 μM
  cell growth (Control = 100): 34.9345
[12]; 5-FU 5 μM
  cell growth (Control = 100): 11.29
[13]; 5-FU 5 μM
  cell growth (Control = 100): 73.95
[14]; 5-FU 10 μM
  cell growth (Control = 100): 36.7557
[15]; MKN45, 5-FU 5 μM
  cell growth (Control = 100): 51.03
[16]; 5-FU 5 μM
  cell growth (Control = 100): 77.83
[17]; 5-FU 5 μM
  cell growth (Control = 100): 51.6552
[18]; 5-FU 5 μM
  cell growth (Control = 100): 80.76
[19]; 5-FU 5 μM
  cell growth (Control = 100): 149.7317
[20]; 5-FU 5 μM
  cell growth (Control = 100): 59.14
[21]; [29]
  Positive/Negative (triple combination of KN510, KN713 and the listed anticancer drug): negative
[21]; Colon Cancer, HT-29, COLO-205
  Positive/Negative (triple combination of KN510, KN713 and the listed anticancer drug): Positive
[21]; GBM, U87MG, T87G
  Positive/Negative (triple combination of KN510, KN713 and the listed anticancer drug): Positive
[21]; Liver Cancer, SNU-449, Huh-7
  Positive/Negative (triple combination of KN510, KN713 and the listed anticancer drug): Positive
[21]; NSCLC, A549, H522
  Positive/Negative (triple combination of KN510, KN713 and the listed anticancer drug): Positive
[21]; [30]
  Positive/Negative (triple combination of KN510, KN713 and the listed anticancer drug): negative
[21]; PDAC, MIA PaCa-2, PANC-1
  Positive/Negative (triple combination of KN510, KN713 and the listed anticancer drug): Positive
[21]; Prostate Cancer, PC-3, DU-145
  Positive/Negative (triple combination of KN510, KN713 and the listed anticancer drug): Positive
[21]; [31]
  Positive/Negative (triple combination of KN510, KN713 and the listed anticancer drug): Positive
[21]; Stomach Cancer, MKN-28, AGS
  Positive/Negative (triple combination of KN510, KN713 and the listed anticancer drug): Positive
[21]; melanoma, UACC62, A375
  Positive/Negative (triple combination of KN510, KN713 and the listed anticancer drug): negative

## N.N.[Cl][Pt][Cl] [Cisplatin]
[1]; Cisplatin 1 μM
  cell growth (Control = 100): 85.06
[2]; Cisplatin 1 μM
  cell growth (Control = 100): 75.07
[3]; Cisplatin 1 μM
  cell growth (Control = 100): 118.1147
[4]; Cisplatin 1 μM
  cell growth (Control = 100): 74.02
[5]; Cisplatin 1 μM
  cell growth (Control = 100): 94.84
[6]; Cisplatin 1 μM
  cell growth (Control = 100): 83.44
[7]; Cisplatin 1 μM
  cell growth (Control = 100): 113.4691
[8]; Cisplatin 1 μM
  cell growth (Control = 100): 60.85
[9]; Cisplatin 1 μM
  cell growth (Control = 100): 97.49
[10]; Cisplatin 1 μM
  cell growth (Control = 100): 100.5484
[11]; Cisplatin 1 μM
  cell growth (Control = 100): 66.69
[12]; Cisplatin 1 μM
  cell growth (Control = 100): 70.82
[13]; Cisplatin 1 μM
  cell growth (Control = 100): 93.91
[14]; Cisplatin 1 μM
  cell growth (Control = 100): 95.91
[15]; MKN-45, Cisplatin 1 μM
  cell growth (Control = 100): 96.28
[16]; Cisplatin 1 μM
  cell growth (Control = 100): 84.76
[17]; Cisplatin 1 μM
  cell growth (Control = 100): 67.15
[18]; Cisplatin 1 μM
  cell growth (Control = 100): 75.0979
[19]; Cisplatin 1 μM
  cell growth (Control = 100): 136.3148
[20]; Cisplatin 1 μM
  cell growth (Control = 100): 91.68
[22]
  cell growth (Control = 100): 120.49
[23]
  cell growth (Control = 100): 87.30
[21]; [29]
  Positive/Negative (triple combination of KN510, KN713 and the listed anticancer drug): negative
[21]; Colon Cancer, HT-29, COLO-205
  Positive/Negative (triple combination of KN510, KN713 and the listed anticancer drug): negative
[21]; GBM, U87MG, T87G
  Positive/Negative (triple combination of KN510, KN713 and the listed anticancer drug): negative
[21]; Liver Cancer, SNU-449, Huh-7
  Positive/Negative (triple combination of KN510, KN713 and the listed anticancer drug): negative
[21]; NSCLC, A549, H522
  Positive/Negative (triple combination of KN510, KN713 and the listed anticancer drug): negative
[21]; [30]
  Positive/Negative (triple combination of KN510, KN713 and the listed anticancer drug): negative
[21]; PDAC, MIA PaCa-2, PANC-1
  Positive/Negative (triple combination of KN510, KN713 and the listed anticancer drug): negative
[21]; Prostate Cancer, PC-3, DU-145
  Positive/Negative (triple combination of KN510, KN713 and the listed anticancer drug): negative
[21]; [31]
  Positive/Negative (triple combination of KN510, KN713 and the listed anticancer drug): negative
[21]; Stomach Cancer, MKN-28, AGS
  Positive/Negative (triple combination of KN510, KN713 and the listed anticancer drug): negative
[21]; melanoma, UACC62, A375
  Positive/Negative (triple combination of KN510, KN713 and the listed anticancer drug): negative

## COc1ccccc1OCC(O)CN1CCN(CC(=O)Nc2c(C)cccc2C)CC1 (centres unmarked) [KN715, ranolazine]
[24]
  degree of cell growth based on the control (100%): 86.53% and 57.91% and 63.15%
[25]
  degree of cell growth based on the control (100%): 46.24% and 45.76% and 59.04%
[26]
  degree of cell growth based on the control (100%): 87.91% and 65.15% and 73.29%
[27]
  degree of cell growth based on the control (100%): 23.58% and 23.63% and 27.45%
[28]
  degree of cell growth based on the control (100%): 90.37% and 63.92% and 73.38%

## CCCS(=O)(=O)Nc1ccc(F)c(C(=O)c2c[nH]c3ncc(-c4ccc(Cl)cc4)cc23)c1F [Vermutafenib]
[1]; Vermutafenib 0.5 μM
  cell growth (Control = 100): 7.77
[20]; Vermutafenib 0.5 μM
  cell growth (Control = 100): 2.10
